# In ChEMBL document CHEMBL1201862, “PubChem BioAssay data set” (2004):
#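 Compound exposure: 48 hours, 5 concentrations, 96-well plates. Here, GI50 denotes the concentration required for 50% inhibition of growth.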 Active and inactive are the calls of the source. Cut-off read from the data, not from the text of the source: active = GI50 up to about 1.1 µM and inactive = higher.
# Key:
# Assay in all cases: growth of human tumour cells (NCI), 48 h
# 786-0 = tested on: 786-0
# A498 = tested on: A498
# A549 = tested on: A549
# ACHN = tested on: ACHN
# BT-549 = tested on: BT-549
# CAKI-1 = tested on: CAKI-1
# CCRF-CEM = tested on: CCRF-CEM
# COLO 205 = tested on: COLO 205
# DU-145 = tested on: DU-145
# EKVX = tested on: EKVX
# HCC 2998 = tested on: HCC 2998
# HCT-116 = tested on: HCT-116
# HCT-15 = tested on: HCT-15
# HL-60 = tested on: HL-60
# HOP-62 = tested on: HOP-62
# HOP-92 = tested on: HOP-92
# HT-29 = tested on: HT-29
# Hs-578T = tested on: Hs-578T
# IGROV-1 = tested on: IGROV-1
# K562 = tested on: K562
# KM12 = tested on: KM12
# LOX IMVI = tested on: LOX IMVI
# M14 = tested on: M14
# MCF7 = tested on: MCF7
# MDA-MB-231 = tested on: MDA-MB-231
# MDA-MB-435 = tested on: MDA-MB-435
# MDA-N = tested on: MDA-N
# MOLT-4 = tested on: MOLT-4
# Malme-3M = tested on: Malme-3M
# NCI-H226 = tested on: NCI-H226
# NCI-H23 = tested on: NCI-H23
# NCI-H460 = tested on: NCI-H460
# NCI/ADR-RES = tested on: NCI/ADR-RES
# OVCAR-3 = tested on: OVCAR-3
# OVCAR-4 = tested on: OVCAR-4
# OVCAR-5 = tested on: OVCAR-5
# OVCAR-8 = tested on: OVCAR-8
# PC-3 = tested on: PC-3
# RPMI-8226 = tested on: RPMI-8226
# RXF 393 = tested on: RXF 393
# SF-268 = tested on: SF-268
# SF-295 = tested on: SF-295
# SF-539 = tested on: SF-539
# SK-MEL-28 = tested on: SK-MEL-28
# SK-MEL-2 = tested on: SK-MEL-2
# SK-MEL-5 = tested on: SK-MEL-5
# SK-OV-3 = tested on: SK-OV-3
# SN12C = tested on: SN12C
# SNB-19 = tested on: SNB-19
# SNB-75 = tested on: SNB-75
# SR = tested on: SR
# SW-620 = tested on: SW-620
# T47D = tested on: T47D
# TK-10 = tested on: TK-10
# U-251 = tested on: U-251
# UACC-257 = tested on: UACC-257
# UACC-62 = tested on: UACC-62
# UO-31 = tested on: UO-31
structure (smiles),measurement,setting,value
c1ccc2oc(-c3ccc(-c4nc5ccccc5o4)c4c3CC4)nc2c1,GI50,786-0,> 100 µM (inactive)
same,GI50,A498,> 100 µM (inactive)
same,GI50,A549,> 100 µM (inactive)
same,GI50,ACHN,> 100 µM (inactive)
same,GI50,BT-549,> 100 µM (inactive)
same,GI50,CAKI-1,> 100 µM (inactive)
same,GI50,CCRF-CEM,> 100 µM (inactive)
same,GI50,COLO 205,> 100 µM (inactive)
same,GI50,DU-145,> 100 µM (inactive)
same,GI50,EKVX,> 100 µM (inactive)
same,GI50,HCC 2998,> 100 µM (inactive)
same,GI50,HCT-116,> 100 µM (inactive)
same,GI50,HCT-15,> 100 µM
same,GI50,HL-60,> 100 µM (inactive)
same,GI50,HOP-62,> 100 µM (inactive)
same,GI50,HOP-92,> 100 µM (inactive)
same,GI50,HT-29,> 100 µM (inactive)
same,GI50,Hs-578T,> 100 µM (inactive)
same,GI50,IGROV-1,> 100 µM (inactive)
same,GI50,K562,> 100 µM (inactive)
same,GI50,KM12,> 100 µM (inactive)
same,GI50,LOX IMVI,> 100 µM (inactive)
same,GI50,M14,> 100 µM (inactive)
same,GI50,MCF7,> 100 µM (inactive)
same,GI50,MDA-MB-231,> 100 µM (inactive)
same,GI50,MDA-MB-435,> 100 µM (inactive)
same,GI50,MDA-N,> 100 µM (inactive)
same,GI50,MOLT-4,> 100 µM (inactive)
same,GI50,Malme-3M,> 100 µM (inactive)
same,GI50,NCI-H226,> 100 µM (inactive)
same,GI50,NCI-H23,> 100 µM (inactive)
same,GI50,NCI-H460,> 100 µM (inactive)
same,GI50,NCI/ADR-RES,> 100 µM (inactive)
same,GI50,OVCAR-3,> 100 µM (inactive)
same,GI50,OVCAR-4,> 100 µM (inactive)
same,GI50,OVCAR-5,> 100 µM (inactive)
same,GI50,OVCAR-8,> 100 µM (inactive)
same,GI50,PC-3,> 100 µM (inactive)
same,GI50,RPMI-8226,> 100 µM (inactive)
same,GI50,RXF 393,> 100 µM (inactive)
same,GI50,SF-268,> 100 µM (inactive)
same,GI50,SF-295,> 100 µM (inactive)
same,GI50,SF-539,> 100 µM (inactive)
same,GI50,SK-MEL-28,> 100 µM (inactive)
same,GI50,SK-MEL-2,> 100 µM (inactive)
same,GI50,SK-MEL-5,> 100 µM (inactive)
same,GI50,SK-OV-3,> 100 µM (inactive)
same,GI50,SN12C,> 100 µM (inactive)
same,GI50,SNB-19,> 100 µM (inactive)
same,GI50,SNB-75,> 100 µM (inactive)
same,GI50,SR,> 100 µM (inactive)
same,GI50,SW-620,> 100 µM (inactive)
same,GI50,T47D,> 100 µM (inactive)
same,GI50,TK-10,> 100 µM (inactive)
same,GI50,U-251,> 100 µM (inactive)
same,GI50,UACC-257,> 100 µM (inactive)
same,GI50,UACC-62,> 100 µM (inactive)
same,GI50,UO-31,> 100 µM (inactive)
